Laboratory results taken from patent US20130197043A1, “USE OF THE FETAL REPROGRAMMING OF A PPAR AGONIST” (SNU R&DB FOUNDATION, priority 2010, published 2013).

Legend:
hPPARg = target: T1, hPPARg (Homo sapiens, UniProt P37231); assay: Transfection assay in CV-1 cells, hPPARg; type: cell-based; conditions: luciferase reporter
T1 construct: expressed in transfected cells; host or cells: CV-1 cells
T1 sequence (P37231 1-505): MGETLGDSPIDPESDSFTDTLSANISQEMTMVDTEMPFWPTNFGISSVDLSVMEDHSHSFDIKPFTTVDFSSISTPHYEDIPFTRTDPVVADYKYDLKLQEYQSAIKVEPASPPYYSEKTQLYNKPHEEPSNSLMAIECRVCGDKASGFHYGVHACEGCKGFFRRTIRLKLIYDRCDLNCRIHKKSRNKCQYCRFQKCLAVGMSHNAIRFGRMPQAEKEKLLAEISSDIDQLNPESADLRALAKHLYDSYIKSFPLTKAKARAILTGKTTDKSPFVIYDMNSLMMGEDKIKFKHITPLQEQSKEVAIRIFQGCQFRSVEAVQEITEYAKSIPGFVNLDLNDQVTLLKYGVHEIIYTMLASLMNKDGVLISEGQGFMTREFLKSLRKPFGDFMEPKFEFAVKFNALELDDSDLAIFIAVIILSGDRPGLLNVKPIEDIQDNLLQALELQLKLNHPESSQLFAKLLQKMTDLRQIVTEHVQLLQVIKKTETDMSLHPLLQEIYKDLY
Description: (§1) This assay was conducted by using CV-1 cells. The cells were cultured on a 96-well plate with a DMEM medium containing 10% FBS, DBS (delipidated), and 1% penicillin/streptomycin in 37° C. of an incubator 5% of carbon dioxide. Test was conducted in four stages of cell inoculation, transfection, treatment with the developed material, and result confirmation. The CV-1 cells were inoculated on the 96-well plate at a cell density at 5,000 cells/well, and after 24 hours, transfection was performed. PPARs plasmid DNA, reporter DNA, and β-galactosidase DNA were mixed with a transfection reagent, and then used to treat the cells. The developed material was dissolved in dimethylsulfoxide (DMSO), and then was used to treat the cells by using media at various concentrations. After 24 hours of culturing in an incubator, the cells were lysed with a lysis buffer and luciferase activity and β-galactosidase activity were measured using a luminometer and a microplate reader. The measured luciferase value was calibrated with the β-galactosidase value, and this value was depicted on a graph and EC50 was determined.

hPPAR δ = target: T2, hPPAR δ (Homo sapiens, UniProt Q03181); assay: Transfection assay in CV-1 cells, hPPAR δ; type: cell-based; conditions: luciferase reporter
T2 construct: expressed in transfected cells; host or cells: CV-1 cells
T2 sequence (Q03181 1-441): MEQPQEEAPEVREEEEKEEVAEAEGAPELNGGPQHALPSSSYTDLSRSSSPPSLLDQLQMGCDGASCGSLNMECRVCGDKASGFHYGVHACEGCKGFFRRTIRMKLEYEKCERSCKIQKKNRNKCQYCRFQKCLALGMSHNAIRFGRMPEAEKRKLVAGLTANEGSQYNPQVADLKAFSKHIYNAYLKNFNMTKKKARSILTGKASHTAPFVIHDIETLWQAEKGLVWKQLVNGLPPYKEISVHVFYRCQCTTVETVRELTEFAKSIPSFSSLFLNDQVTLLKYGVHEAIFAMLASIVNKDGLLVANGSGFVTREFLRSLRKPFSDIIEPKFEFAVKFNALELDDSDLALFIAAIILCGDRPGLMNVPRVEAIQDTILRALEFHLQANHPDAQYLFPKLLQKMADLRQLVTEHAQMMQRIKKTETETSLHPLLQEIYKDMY
Description: as §1

hPPARa = target: T3, hPPARa (Homo sapiens, UniProt Q07869); assay: Transfection assay in CV-1 cells, hPPARa; type: cell-based; conditions: luciferase reporter
T3 construct: expressed in transfected cells; host or cells: CV-1 cells
T3 sequence (Q07869 1-468): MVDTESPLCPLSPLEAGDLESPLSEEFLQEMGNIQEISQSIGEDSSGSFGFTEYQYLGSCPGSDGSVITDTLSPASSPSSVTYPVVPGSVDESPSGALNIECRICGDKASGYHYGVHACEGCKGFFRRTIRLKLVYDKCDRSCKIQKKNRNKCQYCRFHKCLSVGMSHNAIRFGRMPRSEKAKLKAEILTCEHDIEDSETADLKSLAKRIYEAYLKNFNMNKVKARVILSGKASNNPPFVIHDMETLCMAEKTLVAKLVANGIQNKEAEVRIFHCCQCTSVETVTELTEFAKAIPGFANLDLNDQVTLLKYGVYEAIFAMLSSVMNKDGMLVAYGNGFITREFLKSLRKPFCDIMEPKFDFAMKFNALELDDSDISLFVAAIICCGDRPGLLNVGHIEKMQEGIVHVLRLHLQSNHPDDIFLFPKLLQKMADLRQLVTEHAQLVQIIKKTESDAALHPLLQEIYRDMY
Description: as §1

[1] = tested on: mice subjected to fetal reprogramming; assay: Treadmill endurance test of mice subjected to fetal reprogramming; type: in vivo
Description: Before the experiment, mice were exercised for 5 minutes at a speed of 7 meters/min for two days so as to be adapted to exercising equipment. On day 3, the main experiment was conducted. As for the method for experiment, the mice were made to run at a speed of 10 meter/min for 60 minutes, and after that, the speed was increased at 1 meter/min once every 15 minutes until the maximum speed reaches 15 meters/min. As for the male mice, the running time was increased by 2.9 fold ([…], P<0.0001, n=6) and the running distance was increased by 3.0 fold (9927±1168 versus 3303±394 m, P<0.0001) in the PPAR δ agonist (CMDD1111)-administered mouse group than the control mouse group.
The Experiment using pregnant C57BL/6 mice was conducted in order to verify an endurance enhancement effect by fetal reprogramming of CMDD1226. […]
The experiment for verifying the fetal reprogramming effect of GW501516 and determining the optimum administration period thereof was conducted. The experiment method was shown in FIG. 1, and the experiment was conducted with respect to three kinds of administration periods (gestation period, lactation period, and both of gestation and lactation periods). As the experiment result, the group administered with PPAR δ agonist only during the gestation period had 2.6-fold and 3.2-fold increases in the running time and the running distance, respectively, and the group administered with PPAR δ agonist only during the lactation period had 2.4-fold and 3.0-fold increases in the running time and the running distance, respectively, as compared with the control group. The group administered with PPAR δ agonist during both the gestation and lactation periods had the most obvious increase in endurance, and had 5.1-fold and 6.6-fold increases as compared with the control group (FIG. 22).
The animal test was conducted in order to verify the muscle endurance enhancement and muscular function improvement effects of the material according to the present invention. […] […] The test using a treadmill was conducted in order to confirm the effect of this muscular fiber change on muscle endurance enhancement and muscular function improvement.

[2] = tested on: slow muscle fibers and endurance; conditions: cited from earlier work
HDL in serum = assay: High-density lipoprotein cholesterol (HDL) in serum; type: in vivo; conditions: mice fed 10% fat feedstuff over 6 weeks
Excerpt: High-density lipoprotein cholesterol (HDL) has been known to play an important role in treating lipid metabolic disorders such as arteriosclerosis and hyperlipidemia while lowering the cholesterol level of an epidermal cell and mitigating an inflammatory reaction. Serum was separated from the mice fed over a 6-week period of feedstuff containing 10% fat in order to confirm the high-density cholesterol increase effect of Compounds 5 and 9, which were the developed materials of the present invention.

[3] = C57BL/6, maternal 10 mg/kg/day gestation and lactation, 7-week old
[4] = administered during both gestation and lactation periods
[5] = administered only during the gestation period
[6] = administered only during the lactation period

| EC50 hPPARg (hPPARg) | EC50 (hPPAR δ) [nM] | EC50 hPPARa (hPPARa) | SMILES | other results |
| --- | --- | --- | --- | --- |
| ia | 4.6 | ia | CCOC(=O)COc1ccc(SC(Cc2ccc(-c3ccc(F)c(Cl)c3)cc2)c2sc(-c3ccc(C(F)(F)F)cc3)nc2C)cc1C (stereo not drawn) [Compound 28] | – |
| ia | 41.4 | ia | Cc1cc(SC(Cc2cc(-c3ccc(F)cc3)no2)c2sc(-c3ccc(C(F)(F)F)cc3)nc2C)ccc1OCC(=O)O (stereo not drawn) [Compound 33] | – |
| – | – | – | Cc1cc([Se]C(Cc2ccccc2)c2sc(-c3ccc(C(F)(F)F)cc3)nc2C)ccc1OCC(=O)O (stereo not drawn) [CMDD1226] | increase in the running distance versus control [1, 3]: 2.0 fold; increase in the running time versus control [1, 3]: 1.9 fold |
| – | – | – | Cc1cc(SC(Cc2c(F)cccc2Cl)c2sc(-c3ccc(C(F)(F)F)cc3)nc2C)ccc1OCC(=O)O (stereo not drawn) [CMDD1112] | endurance enhancement effect ([1]; 1 mg/kg/day): not exhibited; endurance enhancement effect ([1]; 2 mg/kg/day): not exhibited; running distance enhancement ([1]; 5 mg/kg/day): 1.5 fold; running time enhancement ([1]; 5 mg/kg/day): 1.4 fold |
| ia | 10.6 | ia | Cc1cc(SC(Cc2ccc(-c3ccc(C(F)(F)F)cc3)nc2)c2sc(-c3ccc(C(F)(F)F)cc3)nc2C)ccc1OCC(=O)O (stereo not drawn) [Compound 21] | – |
| ia | 6.4 | ia | Cc1cc(SC(Cc2ccc(-c3ccc(C(F)(F)F)cc3)cc2)c2sc(-c3ccc(C(F)(F)F)cc3)nc2C)ccc1OCC(=O)O (stereo not drawn) [Compound 17] | – |
| ia | 8.8 | ia | Cc1cc(SC(Cc2ccc(-c3cc(F)c(F)c(F)c3)cc2)c2sc(-c3ccc(C(F)(F)F)cc3)nc2C)ccc1OCC(=O)O (stereo not drawn) [Compound 13] | – |
| – | – | – | Cc1cc(SCc2sc(-c3ccc(C(F)(F)F)cc3)nc2C)ccc1OCC(=O)O [GW501516, reference compound] | increase in the running distance versus control [1, 4]: 6.6 fold; increase in the running time versus control [1, 4]: 5.1 fold; increase in the running distance versus control [1, 5]: 3.2 fold; increase in the running time versus control [1, 5]: 2.6 fold; increase in the running distance versus control [1, 6]: 3.0 fold; increase in the running time versus control [1, 6]: 2.4 fold; improvement in slow muscle fibers and endurance ([2]; administration alone to an adult): did not show improvement; slow muscle fibers and endurance ([2]; simultaneous combination of exercise and administration): generated slow muscle fibers and enhanced endurance; HDL increase in serum (HDL in serum): 29% |
| ia | 6.1 | ia | Cc1cc(SC(Cc2ccc(-c3cccc(C(F)(F)F)c3)cc2)c2sc(-c3ccc(C(F)(F)F)cc3)nc2C)ccc1OCC(=O)O (stereo not drawn) [Compound 25] | – |
